Holding throughout (type): in vivo
For assay [1], the system named is Alopecurus myosuroides. Nature of the assay: Pre-emergence herbicidal activity against ALOMY. The conditions noted are these: Alopecurus myosuroides, 504 h, dosage 80 g/ha, scored visually after about 3 weeks vs untreated controls. The gist of the method: (§1)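 Pre-emergence pot test: seed → soil cover → spray of WP/EC formulation (aq., 0.5% additive, 600 l/ha) on soil surface → greenhouse ~3 wk → visual % activity vs untreated (100% = dead, 0% = as control).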

In assay [2] the test system is Avena fatua. Nature of the assay: Pre-emergence herbicidal activity against AVEFA. The conditions noted are these: Avena fatua, 504 h, dosage 80 g/ha, scored visually after about 3 weeks vs untreated controls, read-out: Pre-emergence herbicidal activity in % against AVEVA (AVEFA). The method, boiled down: as §1
For assay [3], the system named is Cyperus esculentus. Nature of the assay: Pre-emergence herbicidal activity against CYPES. Particulars: dosage 80 g/ha, scored visually after about 3 weeks vs untreated controls. An excerpt: (§2) 1. Pre-emergence herbicidal action against harmful plants and crop plant compatibility Seeds of monocotyledonous and dicotyledonous weed plants and crop plants are placed in plastic or wood fiber pots and covered with soil. The compounds of the invention, formulated in the form of wettable powders (WP) or as emulsion concentrates (EC), are then applied onto the surface of the covering soil as aqueous suspension or emulsion with addition of 0.5% additive at a water application rate of 600 l/ha (converted). After the treatment, the pots are placed in a greenhouse and kept under good growth conditions for the trial plants. After about 3 weeks, the effect of the preparations is scored visually in comparison with untreated controls as percentages. For example, 100% activity=the plants have died, 0% activity=like control plants. [table]

Assay [4] has as its system Echinochloa crus-galli. Nature of the assay: Pre-emergence herbicidal activity against ECHCG. The conditions noted are these: Echinochloa crus-galli, 504 h, dosage 80 g/ha, scored visually after about 3 weeks vs untreated controls. The gist of the method:
as §1

For assay [5], the system named is Lolium rigidum. Nature of the assay: Pre-emergence herbicidal activity against LOLRI. The conditions noted are these: Lolium rigidum, 504 h, dosage 80 g/ha, scored visually after about 3 weeks vs untreated controls. The gist of the method: as §1
Assay [6] relates to Setaria viridis. Nature of the assay: Pre-emergence herbicidal activity against SETVI. Particulars: Setaria viridis, 504 h, dosage 80 g/ha, scored visually after about 3 weeks vs untreated controls. The gist of the method:
as §1

The subject of assay [7] is Amaranthus retroflexus. Nature of the assay: Pre-emergence herbicidal activity against AMARE. Particulars: Amaranthus retroflexus, 504 h, dosage 80 g/ha, scored visually after about 3 weeks vs untreated controls. The method, boiled down: as §1
Assay [8] deals with Pharbitis purpurea. Nature of the assay: Pre-emergence herbicidal activity against PHBPU. The conditions noted are these: dosage 80 g/ha, scored visually after about 3 weeks vs untreated controls. The method, boiled down:
as §1

The test system of assay [9] is Polygonum convolvulus. Nature of the assay: Pre-emergence herbicidal activity against POLCO. The conditions noted are these: Fallopia convolvulus, 504 h, dosage 80 g/ha, scored visually after about 3 weeks vs untreated controls. The gist of the method: as §1
Assay [10] deals with Stellaria media. Nature of the assay: Pre-emergence herbicidal activity against STEME. Particulars: Stellaria media, 504 h, dosage 80 g/ha, scored visually after about 3 weeks vs untreated controls. The gist of the method:
as §1

The subject of assay [11] is Viola tricolor. Nature of the assay: Pre-emergence herbicidal activity against VIOTR. Particulars: Viola tricolor, 504 h, dosage 80 g/ha, scored visually after about 3 weeks vs untreated controls. The gist of the method: as §1
The subject of assay [12] is Veronica persica. Nature of the assay: Pre-emergence herbicidal activity against VERPE. The conditions noted are these: Veronica persica, 504 h, dosage 80 g/ha. The gist of the method: as §1
Assay [13] deals with Hordeum murinum. Nature of the assay: Pre-emergence herbicidal activity against HORMU. Particulars: Hordeum murinum, 504 h, dosage 80 g/ha. The gist of the method: as §1
The test system of assay [14] is Alopecurus myosuroides. Nature of the assay: Post-emergence herbicidal activity against ALOMY. Particulars: Alopecurus myosuroides, 504 h, dosage 320 g/ha, rated visually after about 3 weeks. The gist of the method:
(§3)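 Post-emergence greenhouse spray at one-leaf stage, 600 l/ha with 0.5% additive; percent activity rated by eye after about 3 weeks relative to untreated plants.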

The test system of assay [15] is Echinochloa crus-galli. Nature of the assay: Post-emergence herbicidal activity against ECHCG. The conditions noted are these: Echinochloa crus-galli, 504 h, dosage 320 g/ha, rated visually after about 3 weeks. The method, boiled down: as §3
Assay [16] has as its system Lolium rigidum. Nature of the assay: Post-emergence herbicidal activity against LOLRI. Particulars: Lolium rigidum, 504 h, dosage 320 g/ha, rated visually after about 3 weeks. The method, boiled down: as §3
For assay [17], the system named is Setaria viridis. Nature of the assay: Post-emergence herbicidal activity against SETVI. Particulars: Setaria viridis, 504 h, dosage 320 g/ha, rated visually after about 3 weeks. The method, boiled down:
as §3

The test system of assay [18] is Abutilon theophrasti. Nature of the assay: Post-emergence herbicidal activity against ABUTH. The conditions noted are these: Abutilon theophrasti, 504 h, dosage 320 g/ha, rated visually after about 3 weeks. The method, boiled down: as §3
For assay [19], the system named is Amaranthus retroflexus. Nature of the assay: Post-emergence herbicidal activity against AMARE. Particulars: Amaranthus retroflexus, 504 h, dosage 320 g/ha, rated visually after about 3 weeks. The gist of the method: as §3
Assay [20] has as its system Pharbitis purpurea. Nature of the assay: Post-emergence herbicidal activity against PHBPU. The conditions noted are these: Ipomoea purpurea, 504 h, dosage 320 g/ha, rated visually after about 3 weeks. The gist of the method: as §3
The subject of assay [21] is Stellaria media. Nature of the assay: Post-emergence herbicidal activity against STEME. The conditions noted are these: Stellaria media, 504 h, dosage 320 g/ha, rated visually after about 3 weeks. The method, boiled down: as §3
Assay [22] concerns Viola tricolor. Nature of the assay: Post-emergence herbicidal activity against VIOTR. The conditions noted are these: Viola tricolor, 504 h, dosage 320 g/ha, rated visually after about 3 weeks. The gist of the method:
as §3

Assay [23] relates to Veronica persica. Nature of the assay: Post-emergence herbicidal activity against VERPE. Particulars: Veronica persica, 504 h, dosage 320 g/ha, rated visually after about 3 weeks. The method, boiled down: as §3
Assay [24] has as its system Hordeum murinum. Nature of the assay: Post-emergence herbicidal activity against HORMU. Particulars: Hordeum murinum, 504 h, dosage 320 g/ha, rated visually after about 3 weeks. The method, boiled down:
as §3

Assay [25] can be described thus: Pre-emergence herbicidal action against harmful plants (summary of the tables). The conditions noted are these: 504 h, application rate of 0.08 kg of active substance or less per hectare, read-out: herbicidal action, pre-emergence treatment (very good activity). The method, boiled down: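 Seeds of weeds and crops were covered with soil, then WP or EC formulations were sprayed onto the soil surface pre-emergence at 600 l/ha water with 0.5% additive. Plants were grown in a greenhouse for about 3 weeks, and damage was scored visually as a percentage versus untreated controls (100% = plants dead).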

In assay [26] the test system is Abutilon theophrasti. Nature of the assay: Pre-emergence herbicidal activity against ABUTH. The conditions noted are these: dosage 80 g/ha, scored visually after about 3 weeks vs untreated controls.
Description: as §2

For assay [27], the system named is Avena fatua. Nature of the assay: Post-emergence herbicidal activity against AVEFA. The conditions noted are these: Avena fatua, 504 h, dosage 320 g/ha, rated visually after about 3 weeks. The gist of the method: as §3
For assay [28], the system named is Polygonum convolvulus. Nature of the assay: Post-emergence herbicidal activity against POLCO. Particulars: Fallopia convolvulus, 504 h, dosage 320 g/ha, rated visually after about 3 weeks. The gist of the method: as §3

In the case of `C=C[C@]1(C(=O)N[C@@H]2CO[C@H](C(=O)NS(C)(=O)=O)C2)CC(c2cc(F)cc(F)c2)=NO1` (mixture of isomers) [Example I-16, (5S)-3-(3,5-difluorophenyl)-N-[cis-5-(methylsulfonylcarbamoyl)tetrahydrofuran-3-yl]-5-vinyl-4H-isoxazole-5-carboxamide], the pest or weed control at 80 g/ha in [1], in assay [2], in assay [4], in assay [5], in assay [6] and in [7] was 100% throughout. Further, the pest or weed control at 80 g/ha is 100% in assay [9]; 100% in assay [10]; 100% in assay [11]; 90% in assay [12]; 100% in [13]; 80 to 100% in assay [25]. For the same compound, in [3], the “Pre-emergence herbicidal activity in % against CYPES” value is 100%. Moreover, in [8], the “Pre-emergence herbicidal activity in % against PHBPU” value is 90%. For the same compound, the pest or weed control at 320 g/ha in [14] came out at 90%; in [15] it was 90%; in assay [16] it was 90%; in assay [17], 80%; in [18], 80%; in [19] it was 90%. Further, the pest or weed control at 320 g/ha came to 80% in [20]; 90% in assay [21]; 80% in [22]; 80% in [23]; 80% in [24].

In the case of `C=C[C@]1(C(=O)N[C@@H]2CO[C@H](C(=O)N(C)C)C2)CC(c2cc(F)cc(F)c2)=NO1` (mixture of isomers) [Example I-17, (5S)-3-(3,5-difluorophenyl)-N-[cis-5-(dimethylcarbamoyl)tetrahydrofuran-3-yl]-5-vinyl-4H-isoxazole-5-carboxamide], the pest or weed control at 80 g/ha stood at 90% in assay [1]; 100% in assay [2]; 100% in assay [4]; 100% in [5]; 100% in assay [6]; 100% in assay [7]. For the same compound, the pest or weed control at 80 g/ha in assay [9] is 100%; in assay [10] it was 100%; in [11], 100%; in [12], 100%; in [13], 100%; in [25] it was 80 to 100%. The “Pre-emergence herbicidal activity in % against ABUTH” value in [26] is reported as 80%. Moreover, the “Pre-emergence herbicidal activity in % against PHBPU” value in [8] came out at 90%. In addition, the pest or weed control at 320 g/ha in assay [14] turned out to be 90%; in assay [27] it was 90%; in assay [15], 80%; in [16], 90%; in assay [17], 90%; in assay [19], 90%. Moreover, the pest or weed control at 320 g/ha in assay [20] turned out to be 80%; in [28] it was 80%; in [21], 90%; in [22], 80%; in assay [23], 80%; in assay [24], 80%.

With `CC1(C(=O)NC2COCC2C(=O)N2CCCC2)CC(c2cc(F)cc(F)c2)=NO1` (centres unmarked) [Example I-09, 3-(3,5-difluorophenyl)-5-methyl-N-[4-(pyrrolidine-1-carbonyl)tetrahydrofuran-3-yl]-4H-isoxazole-5-carboxamide], the “Pre-emergence herbicidal activity in % against CYPES” value in [3] was 100%. The compound also registered a pest or weed control at 320 g/ha in [20] of 80%.
